Measured values as given in patent US7495104B2, “Quinoline or quinazoline derivatives inhibiting auto-phosphorylation of fibroblast growth factor receptors” (Kirin Beer Kabushiki Kaisha, priority 2001, dated 2009).
Counter-ions that a name gives are not always drawn.

These molecules were tested against Bek (Homo sapiens, UniProt P21802) (assay: Inhibitory activity against Bek-autophosphorylation using ELISA method in OCUM-2MD3 cells). Conditions: 1 hr with compound, read-out: IC50 (concentration necessary for inhibiting 50% of Bek-phosphorylation).
Chain of Bek (P21802 431-767 limits assumed): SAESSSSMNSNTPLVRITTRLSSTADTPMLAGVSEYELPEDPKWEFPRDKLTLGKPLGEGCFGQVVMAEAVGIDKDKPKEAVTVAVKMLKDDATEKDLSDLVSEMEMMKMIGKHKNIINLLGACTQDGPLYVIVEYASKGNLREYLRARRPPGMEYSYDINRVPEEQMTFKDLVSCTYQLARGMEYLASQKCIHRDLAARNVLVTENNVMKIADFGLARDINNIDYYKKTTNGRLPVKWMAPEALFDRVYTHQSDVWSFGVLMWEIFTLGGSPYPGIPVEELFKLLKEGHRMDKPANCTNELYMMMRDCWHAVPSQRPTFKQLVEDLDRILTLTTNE
Type: cell-based
In short: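 Sandwich ELISA (anti-phosphotyrosine capture, anti-Bek detection, peroxidase, 450 nm) measured Bek autophosphorylation in OCUM-2MD3 lysates after 1 hr compound treatment at 37° C in 0.1% serum medium. IC50 derived by scaling between no-drug (100%) and excess positive control at 1000 nM (0%).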
`COc1cc2c(Oc3ccc(NC(=O)NCCC(C)(C)C)cc3)ccnc2cc1OCCCCCl` [Compound 153, 1-{4-[7-(4-Chloro-butoxy)-6-methoxy-quinolin-4-yloxy]-phenyl}-3-(3,3-dimethyl-butyl)-urea] gave an IC50 of 0.241 µM.
Work on `COc1cc2c(Oc3ccc(NC(=O)NCCC(C)(C)C)cc3)ccnc2cc1OCCCN1CCCCC1` [Compound 154, 1-(3,3-Dimethyl-butyl)-3-{4-[6-methoxy-7-(3-piperidin-1-yl-propoxy)-quinolin-4-yloxy]-phenyl}-urea hydrochloride] yielded an IC50 of 0.0244 µM.
`COc1cc2c(Oc3ccc(NC(=O)NCCC(C)(C)C)cc3)ccnc2cc1OCCCN1CCOCC1` [Compound 155, 1-(3,3-Dimethyl-butyl)-3-{4-[6-methoxy-7-(3-morpholin-4-yl-propoxy)-quinolin-4-yloxy]-phenyl}-urea hydrochloride] gave an IC50 of 0.0287 µM.
With `COc1cc2c(Oc3ccc(NC(=O)NCCC(C)(C)C)cc3)ccnc2cc1OCCCN1CCN(C)CC1` [Compound 156, 1-(3,3-Dimethyl-butyl)-3-(4-{6-methoxy-7-[3-(4-methyl-piperazin-1-yl)-propoxy]-quinolin-4-yloxy}-phenyl)-urea hydrochloride] the IC50 was 0.0191 µM.
`COc1cc2c(Oc3ccc(NC(=O)NCCC(C)(C)C)cc3)ccnc2cc1OCCCCN1CCCCC1` [Compound 157, 1-(3,3-Dimethyl-butyl)-3-{4-[6-methoxy-7-(4-piperidin-1-yl-butoxy)-quinolin-4-yloxy]-phenyl}-urea hydrochloride] was tested, and the IC50 was 0.0285 µM.
`COc1cc2c(Oc3ccc(NC(=O)NCCC(C)(C)C)cc3)ccnc2cc1OCCCCN1CCOCC1` [Compound 158, 1-(3,3-Dimethyl-butyl)-3-{4-[6-methoxy-7-(4-morpholin-4-yl-butoxy)-quinolin-4-yloxy]-phenyl}-urea hydrochloride] gave an IC50 of 0.0321 µM.
With `COc1cc2c(Oc3ccc(NC(=O)NCCC(C)(C)C)cc3)ccnc2cc1OCCCCN1CCN(C)CC1` [Compound 159, 1-(3,3-Dimethyl-butyl)-3-(4-{6-methoxy-7-[4-(4-methyl-piperazin-1-yl)-butoxy]-quinolin-4-yloxy}-phenyl)-urea hydrochloride] the IC50 was 0.0262 µM.
`COc1cc2c(Oc3ccc(NC(=O)NCCC(C)(C)C)c(Cl)c3)ccnc2cc1OCCCl` [Compound 160, 1-{2-Chloro-4-[7-(2-chloro-ethoxy)-6-methoxy-quinolin-4-yloxy]-phenyl}-3-(3,3-dimethyl-butyl)-urea] gave an IC50 of 0.0235 µM.
With `COc1cc2c(Oc3ccc(NC(=O)NCCC(C)(C)C)c(Cl)c3)ccnc2cc1OCCCCl` [Compound 161, 1-{2-Chloro-4-[7-(3-chloro-propoxy)-6-methoxy-quinolin-4-yloxy]-phenyl}-3-(3,3-dimethyl-butyl)-urea] the IC50 was 0.189 µM.
For `COc1cc2c(Oc3ccc(NC(=O)NCCC(C)(C)C)c(Cl)c3)ccnc2cc1OCCCCCl` [Compound 162, 1-{2-Chloro-4-[7-(4-chloro-butoxy)-6-methoxy-quinolin-4-yloxy]-phenyl}-3-(3,3-dimethyl-butyl)-urea], the IC50 was 0.252 µM.
With `COc1cc2c(Oc3ccc(NC(=O)NCCC(C)(C)C)c(Cl)c3)ccnc2cc1OCc1ccccc1` [Compound 163, 1-[4-(7-Benzyloxy-6-methoxy-quinolin-4-yloxy)-2-chloro-phenyl]-3-(3,3-dimethyl-butyl)-urea] the IC50 was 0.37 µM.
`COc1cc2c(Oc3ccc(NC(=O)NCCC(C)(C)C)c(Cl)c3)ccnc2cc1OCCCCN1C(=O)c2ccccc2C1=O` [Compound 164, 1-(2-Chloro-4-{7-[4-(1,3-dioxo-1,3-dihydro-isoindol-2-yl)-butoxy]-6-methoxy-quinolin-4-yloxy}-phenyl)-3-(3,3-dimethyl-butyl)-urea] gave an IC50 of 0.26 µM.
`COc1cc2c(Oc3ccc(NC(=O)NCCC(C)(C)C)c(Cl)c3)ccnc2cc1OCCN1CCCC1` [Compound 165, 1-{2-Chloro-4-[6-methoxy-7-(2-pyrrolidin-1-yl-ethoxy)-quinolin-4-yloxy]-phenyl}-3-(3,3-dimethyl-butyl)-urea] showed an IC50 of 0.0689 µM.
`COc1cc2c(Oc3ccc(NC(=O)NCCC(C)(C)C)c(Cl)c3)ccnc2cc1OCCN(C)C` [Compound 166, 1-{2-Chloro-4-[7-(2-dimethylamino-ethoxy)-6-methoxy-quinolin-4-yloxy]-phenyl}-3-(3,3-dimethyl-butyl)-urea] gave an IC50 of 0.039 µM.
Molecule `CCN(CC)CCOc1cc2nccc(Oc3ccc(NC(=O)NCCC(C)(C)C)c(Cl)c3)c2cc1OC` [Compound 167, 1-{2-Chloro-4-[7-(2-diethylamino-ethoxy)-6-methoxy-quinolin-4-yloxy]-phenyl}-3-(3,3-dimethyl-butyl)-urea] has an IC50 of 0.095 µM.
`COc1cc2c(Oc3ccc(NC(=O)NCCC(C)(C)C)c(Cl)c3)ccnc2cc1OCC1CCNCC1` [Compound 168, 1-{2-Chloro-4-[6-methoxy-7-(piperidin-4-ylmethoxy)-quinolin-4-yloxy]-phenyl}-3-(3,3-dimethyl-butyl)-urea] was tested, and the IC50 was 0.024 µM.
`COc1cc2c(Oc3ccc(NC(=O)NCCC(C)(C)C)c(Cl)c3)ccnc2cc1OCC1CCN(C)CC1` [Compound 169, 1-{2-Chloro-4-[6-methoxy-7-(1-methyl-piperidin-4-ylmethoxy)-quinolin-4-yloxy]-phenyl}-3-(3,3-dimethyl-butyl)-urea] gave an IC50 of 0.0252 µM.
`COc1cc2c(Oc3ccc(NC(=O)NCCC(C)(C)C)c(Cl)c3)ccnc2cc1OCC1CCN(CCO)CC1` [Compound 170, 1-(2-Chloro-4-{7-[1-(2-hydroxy-ethyl)-piperidin-4-ylmethoxy]-6-methoxy-quinolin-4-yloxy}-phenyl)-3-(3,3-dimethyl-butyl)-urea] gave an IC50 of 0.0244 µM.
Molecule `COCCN1CCC(COc2cc3nccc(Oc4ccc(NC(=O)NCCC(C)(C)C)c(Cl)c4)c3cc2OC)CC1` [Compound 171, 1-(2-Chloro-4-{6-methoxy-7-[1-(2-methoxy-ethyl)-piperidin-4-ylmethoxy]-quinolin-4-yloxy}-phenyl)-3-(3,3-dimethyl-butyl)-urea] has an IC50 of 0.0324 µM.
In the case of `COc1cc2c(Oc3ccc(NC(=O)NCCC(C)(C)C)c(Cl)c3)ccnc2cc1OCCCN(C)C` [Compound 172, 1-{2-Chloro-4-[7-(3-dimethylamino-propoxy)-6-methoxy-quinolin-4-yloxy]-phenyl}-3-(3,3-dimethyl-butyl)-urea], the IC50 is reported as < 0.01 µM.
Molecule `COc1cc2c(Oc3ccc(NC(=O)NCCC(C)(C)C)c(Cl)c3)ccnc2cc1OCCN1C(=O)c2ccccc2C1=O` [Compound 173, 1-(2-Chloro-4-{7-[2-(1,3-dioxo-1,3-dihydro-isoindol-2-yl)-ethoxy]-6-methoxy-quinolin-4-yloxy}-phenyl)-3-(3,3-dimethyl-butyl)-urea] has an IC50 of 0.153 µM.
For `COc1cc2c(Oc3ccc(NC(=O)NCCC(C)(C)C)c(Cl)c3)ccnc2cc1OCCCCN` [Compound 175, 1-{4-[7-(4-Amino-butoxy)-6-methoxy-quinolin-4-yloxy]-2-chloro-phenyl}-3-(3,3-dimethyl-butyl)-urea], the IC50 was 0.0217 µM.
`COc1cc2c(Oc3ccc(NC(=O)NCCC(C)(C)C)c(Cl)c3)ccnc2cc1OCCN(CCO)CCO` [Compound 176, 1-[4-(7-{2-[Bis-(2-hydroxy-ethyl)-amino]-ethoxy}-6-methoxy-quinolin-4-yloxy)-2-chloro-phenyl]-3-(3,3-dimethyl-butyl)-urea] was tested, and the IC50 was < 0.01 µM.
Work on `COc1cc2c(Oc3ccc(NC(=O)NCCC(C)(C)C)c(Cl)c3)ccnc2cc1OCCN(C)CCO` [Compound 177, 1-[2-Chloro-4-(7-{2-[(2-hydroxy-ethyl)-methyl-amino]-ethoxy}-6-methoxy-quinolin-4-yloxy)-phenyl]-3-(3,3-dimethyl-butyl)-urea] yielded an IC50 of 0.0106 µM.
